Laboratory results from patent publication US20260076948A1, “TREATMENT OF DIABETIC RETINOPATHY USING ENDOTHELIN RECEPTOR ANTAGONISTS” (Perfuse Therapeutics, Inc., priority 2019, published 2026).
Entries after “also recorded” stand apart in the source; their conditions may differ.

Assays:
ETA = target: T1, ETA (Homo sapiens, UniProt P25101); assay: Functional potency for ETA receptor; type: biochemical
T1 sequence (P25101 21-427): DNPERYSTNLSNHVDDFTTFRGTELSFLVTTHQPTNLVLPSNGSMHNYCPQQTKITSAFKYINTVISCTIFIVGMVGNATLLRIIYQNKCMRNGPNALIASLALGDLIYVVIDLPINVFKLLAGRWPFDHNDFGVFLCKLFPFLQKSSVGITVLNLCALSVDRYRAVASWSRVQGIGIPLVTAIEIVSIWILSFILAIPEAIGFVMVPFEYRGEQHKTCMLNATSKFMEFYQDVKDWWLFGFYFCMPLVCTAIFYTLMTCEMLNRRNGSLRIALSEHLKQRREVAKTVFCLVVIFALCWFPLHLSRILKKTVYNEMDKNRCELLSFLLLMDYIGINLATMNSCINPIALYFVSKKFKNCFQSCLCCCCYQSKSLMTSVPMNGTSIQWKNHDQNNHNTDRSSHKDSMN
Text: (§1) In the above table, the physicochemical data, e.g., solubility, were obtained following standard protocols known in the field (see, e.g., Reis et al., Mini Rev Med Chem., 2010, 10(11):1071-6; Avdeef et al., Expert Opin Drug Metab Toxicol., 2005, 1(2):325-42; Bharate et al., Comb Chem High Throughput Screen., 2016, 19(6):461-9; and Jain et al., J Pharm Biomed Anal., 2013, 86:11-35.); and the biochemical data, i.e., potency for ETA/ETB, were obtained following the protocols known in the field (see, e.g., Kirkby et al., Br J Pharmacol., 2008, 153(6):1105-19; and Maguire et al., Br J Pharmacol., 2014, 171(24):5555-72.).

[1] = Solubility (pH 2, pH 7, ethyl acetate); type: physicochemical
Text: as §1

Stability in solid state = type: physicochemical; conditions: 2 h@125° C.
Text: as §1

Permeability (PAMPA) = type: in vitro ADME; conditions: PAMPA log Pe and PSA
Text: as §1

[2] = system: Morrison's rat model of glaucoma (elevated IOP); assay: Morrison's rat model of glaucoma (RGC counts, PERG); type: in vivo, Brown Norway rats; conditions: topical eye drops 100 μg per dose, five days a week, four weeks
Text: Adult male and female retired breeder Brown Norway rats (approximate age groups of 8 to 11 months) were obtained from Envigo (Indianapolis, IN). Baseline IOP measurements and pattern electroretinogram (PERG) amplitudes were collected prior to the surgery for elevation of IOP (to ensure that the IOP and PERG amplitudes were in the expected range of values). IOP was elevated in one eye (left eye) of the rats, while the corresponding right eyes served as contralateral controls. The Morrison method to elevate IOP in rats was carried out by injection of 50 μL. of hypertonic saline through the episcleral veins to sclerose the trabecular meshwork. IOP was measured twice a week throughout the entire duration of the experiment. […] After detecting an elevation of IOP for two consecutive days, topical administration of eye drops (20 μL (100 μg) per dose of the tested compounds in the IOP elevated eye) was commenced and carried out for five days a week for a total of four weeks. In the 4th week of treatment, PERG analysis was carried out and rats were sacrificed by an overdose of pentobarbital (Fatal-Plus). Aqueous humor was collected from the rat eyes, frozen and shipped for analysis. Retinal flat mounts were prepared, immunostained with the RGC marker, Brn3a antibody and surviving RGCs were counted in two eccentricities (central and peripheral).
For this study, the Morrison's model was used to induce ocular hypertension in adult male retired breeder Brown Norway rats as previously described by Morrison et al., (Morrison J C, Moore C G, Deppmeier L M, Gold B G, Meshul C K, Johnson E C. A rat model of chronic pressure-induced optic nerve damage. Exp Eye Res. 1997; 64(1):85-96).
The immunostained retinal flat mounts were obtained to measure the retinal ganglion cell (RGC) counts. To obtain immunostained retinal flat mounts, the animals were euthanized after the treatments and then their eyes were enucleated. The eye cups were fixed overnight at 4° C. in 4% paraformaldehyde (PFA) and retinal flat mounts were prepared for collecting images. The retinal ganglion cell (RGC) counting was conducted using the images of immunostained retinal flat mounts. The images were uploaded to ImageJ, a photo editor designed for biology research (Rasband, 1997-2018) and the labeled retinal ganglion cells were counted manually in two eccentricities (central and peripheral).
Pattern ERG (PERG) was used to assess the RGC function. […] Briefly, PERG signals were acquired from a DTL-plus electrode placed on the lower part of the corneal surface and the PERG waves were analyzed using the EMWIN software (LKC). The difference between the amplitude of the major positive (P1) and negative (N2) waves were calculated to decipher the PERG amplitude.

[3] = Pharmacokinetics after topical or oral administration in the rat; type: in vivo, Brown Norway rats
Description: After the administrations, the animals (N=2) were euthanized at different time points (e.g. 4 and 8 hours) and tissues were collected for analysis. List of tissues collected include plasma, retina/retinal pigment epithelium (RPE)/choroid, vitreous humor and aqueous humor.

ETA/ETB receptor = conditions: background statement; cited from earlier work

CCCCCS(=O)(=O)N(CCC)CCN1C[C@H](c2ccc3c(c2)OCO3)[C@@H](C(=O)O)[C@@H]1c1ccc(OC)c(F)c1 [A-182086, (2R,3R,4S)-4-(2H-1,3-benzodioxol-5-yl)-2-(3-fluoro-4-methoxyphenyl)-1-[2-(N-propylpentane-1-sulfonamido)ethyl]pyrrolidine-3-carboxylic acid]
Functional potency for ETA and ETB receptors, rating in words (ETA): High potency | Specificity ETA versus ETB, rating in words (ETA; ETA vs ETB): Low specificity | Solubility in Ethyl Acetate, rating in words ([1]; ethyl acetate): Good | Solubility at pH 2, comparison in words ([1]; pH 2): superior to that of Edonentan | Stability in Solid State, in words (Stability in solid state): unstable | Stability in Solid State, remaining (Stability in solid state): about 87% remaining/ | Permeability, rating in words (Permeability (PAMPA)): Mid-High | Pattern electroretinogram (PERG) changes, RGC function [2]: maintained RGC function | Retinal ganglion cell (RGC) counts in the peripheral retina [2]: prevented RGC loss | Ocular exposure after topical administration (retina/RPE/choroid, aqueous humor, vitreous humor) ([3]; eye drop 100 μg, 4 and 8 hours): detected; also recorded: permeate through cornea/sclera and achieve retina exposure | Detection in the retina/RPE/choroid after oral administration ([3]; oral, 50 mg/kg as printed): detectable | Endothelin receptor antagonism, description in words (ETA/ETB receptor): potent dual ETA/ETB receptor antagonist
